Results on 8 molecules are retold here after patent publication US20120202690A1, “HERBICIDAL COMPOUNDS” (SYNGENTA LIMITED, priority 2009, published 2012).

The test system of data set [1] is Alopecurus myosuroides (ALOMY). The experiment in a line: Pre-emergence biological efficacy, glasshouse, 1000 g/ha, evaluated after 13 days (100=total damage to plant; 0=no damage to plant). It counts as in vivo. Conditions: Alopecurus myosuroides, 312 h, rate 1,000 g/ha, read-out: Percentage damage caused to weed species, pre-emergence, ALOMY. An outline of the steps: (§1)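 Pot-sown in standard soil; glasshouse 24/16° C. (day/night), 14 h light, 65% humidity; watered twice daily.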

Data set [2] deals with Amaranthus retroflexus (AMARE). The data set is described as above. It counts as in vivo. To be noted: Amaranthus retroflexus, 312 h, rate 1,000 g/ha, read-out: Percentage damage caused to weed species, pre-emergence, AMARE. In a few lines:
as §1

Data set [3] deals with Echinochloa crus-galli (ECHCG). The data set is described as above. It counts as in vivo. Conditions: Echinochloa crus-galli, 312 h, rate 1,000 g/ha, read-out: Percentage damage caused to weed species, pre-emergence, ECHCG. An outline of the steps: as §1
Data set [4] deals with Ipomoea hederaceae (IPOHE). The description is as above. The class given is in vivo. To be noted: Ipomoea, 312 h, rate 1,000 g/ha, read-out: Percentage damage caused to weed species, pre-emergence, IPOHE. An outline of the steps: as §1
For data set [5], the system named is Setaria faberi (SETFA). Described as above. The class given is in vivo. To be noted: Setaria faberi, 312 h, rate 1,000 g/ha, read-out: Percentage damage caused to weed species, pre-emergence, SETFA. In a few lines: as §1
The test system of data set [6] is Solanum nigrum (SOLNI). The data set is described as above. To be noted: Solanum nigrum, 312 h, rate 1,000 g/ha, read-out: Percentage damage caused to weed species, pre-emergence, SOLNI. It counts as in vivo. An outline of the steps:
as §1

Data set [7] concerns Alopecurus myosuroides (ALOMY). Kind of data set: Post-emergence biological efficacy, glasshouse, 500 or 1000 g/ha, evaluated after 13 days (100=total damage to plant; 0=no damage to plant). The class given is in vivo. Conditions: Alopecurus myosuroides, 312 h, rate 1,000 g/ha, read-out: Percentage damage caused to weed species, post-emergence, ALOMY. An outline of the steps: (§2)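 Sow seeds in standard potting soil. Treat after emergence. Keep treated plants in the glasshouse at 24° C. by day and 16° C. by night, with a 14-hour photoperiod, 65% humidity and two waterings daily.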

In data set [8] the test system is Amaranthus retroflexus (AMARE). The data set is described as above. To be noted: Amaranthus retroflexus, 312 h, rate 1,000 g/ha, read-out: Percentage damage caused to weed species, post-emergence, AMARE. The class given is in vivo. An outline of the steps: as §2
In data set [9] the test system is Echinochloa crusgaffi (ECHCG). The data set is described as above. It counts as in vivo. To be noted: Echinochloa, 312 h, rate 1,000 g/ha, read-out: Percentage damage caused to weed species, post-emergence, ECHCG. In a few lines:
as §2

The subject of data set [10] is Ipomoea hederaceae (IPOHE). Described as above. The class given is in vivo. To be noted: Ipomoea, 312 h, rate 1,000 g/ha, read-out: Percentage damage caused to weed species, post-emergence, IPOHE. In a few lines:
as §2

Data set [11] deals with Setaria faberi (SETFA). Described as above. The class given is in vivo. Conditions: Setaria faberi, 312 h, rate 1,000 g/ha, read-out: Percentage damage caused to weed species, post-emergence, SETFA. An outline of the steps: as §2
For data set [12], the system named is Solanum nigrum (SOLNI). The data set is described as above. To be noted: Solanum nigrum, 312 h, rate 1,000 g/ha, read-out: Percentage damage caused to weed species, post-emergence, SOLNI. The class given is in vivo. An outline of the steps: as §2

`COC(=O)c1nc(C2CC2)nc2[nH]ccc12` [Compound 1-2, 2-Cyclopropyl-4-methoxycarbonyl-7H-pyrrolo[2,3-d]pyrimidine]: the melting point – broadly, the temperature, or range, at which the solid turns liquid – fell in the range of 162 to 165 °C. Further, the pest or weed control at 1000 g/ha in data set [1] turned out to be 0%. For the same molecule, the pest or weed control at 1000 g/ha in [2] worked out at 30%. The pest or weed control at 1000 g/ha in [3] was 0%. In addition, in data set [4], the pest or weed control at 1000 g/ha came out at 20%. For the same molecule, in data set [5], the pest or weed control at 1000 g/ha was found to be 0%. Further, the pest or weed control at 1000 g/ha in data set [6] amounted to 50%. In data set [7], the pest or weed control at 1000 g/ha is 10%. In addition, the pest or weed control at 1000 g/ha in data set [8] was determined as 90%. In addition, the pest or weed control at 1000 g/ha in data set [9] stood at 70%. For the same molecule, the pest or weed control at 1000 g/ha in data set [10] came out at 100%. The pest or weed control at 1000 g/ha in [11] worked out at 90%. Besides, the pest or weed control at 1000 g/ha in [12] was determined as 90%.
Turning to `CCOCn1cc(C)c2c(C(=O)O)nc(-c3ccc(Cl)c(OC)c3F)nc21` [Compound 3-63, 4-carboxy-2-(4-chloro-2-fluoro-3-methoxyphenyl)-7-ethoxymethyl-5-methyl-7H-pyrrolo[2,3-d]pyrimidine], the melting point was 112 to 114 °C (dec.). Besides, in data set [1], the pest or weed control at 1000 g/ha was determined as 0%. For the same molecule, the pest or weed control at 1000 g/ha in [2] is 100%. The pest or weed control at 1000 g/ha in data set [3] turned out to be 0%. For the same molecule, the pest or weed control at 1000 g/ha in data set [4] is 20%. Further, the pest or weed control at 1000 g/ha in data set [5] amounted to 0%. Also, the pest or weed control at 1000 g/ha in data set [6] worked out at 50%. The pest or weed control at 1000 g/ha in data set [7] was found to be 0%. Besides, the pest or weed control at 1000 g/ha in data set [8] came to 80%. In data set [9], the pest or weed control at 1000 g/ha is 10%. Also, the pest or weed control at 1000 g/ha in data set [10] was 60%. Also, the pest or weed control at 1000 g/ha in [11] was 10%. The pest or weed control at 1000 g/ha in data set [12] was determined as 80%.
Regarding `COc1c(Cl)ccc(-c2nc(C(=O)O)c3c(n2)N(C)CCN3C)c1F` [Compound 92-163, 4-Carboxy-2-(4-chloro-2-fluoro-3-methoxyphenyl)-5,8-dimethyl-5,6,7,8-tetrahydropteridine], the pest or weed control at 1000 g/ha in data set [1], in data set [2], in [3], in data set [4], in data set [5] and in data set [6] was 0% in each case. For the same molecule, the pest or weed control at 1000 g/ha was 10% in data set [7]; 0% in [8]; 10% in data set [9]; 10% in [10]; 10% in data set [11]; 10% in [12].
With `COc1c(Cl)ccc(-c2nc(C(=O)O)c3c(n2)N(C(C)C)CCN3C(C)C)c1F` [Compound 93-165, 4-Carboxy-2-(4-chloro-2-fluoro-3-methoxyphenyl)-5,8-diisopropyl-5,6,7,8-tetrahydropteridine], the pest or weed control at 1000 g/ha was found to be 0% in data set [1]; 0% in [2]; 0% in data set [3]; 10% in [4]; 0% in data set [5]; 0% in [6]. Further, the pest or weed control at 1000 g/ha in [7] turned out to be 10%; in [8], 20%; in data set [9], 20%; in data set [10] it was 20%; in data set [11] it was 30%; in data set [12] it was 30%.
With `COC(=O)c1nc(-c2ccc(Cl)c(OC)c2F)nc2c1NCCN2Cc1ccccc1` [Compound 95-162, 8-benzyl-2-(4-chloro-2-fluoro-3-methoxyphenyl)-4-methoxycarbonyl-5,6,7,8-tetrahydropteridine], the pest or weed control at 1000 g/ha in [1] worked out at 10%; in data set [2] it was 0%; in data set [3], 0%; in [4] it was 40%; in data set [5] it was 0%; in data set [6], 0%. Moreover, the pest or weed control at 1000 g/ha was determined as 10% in data set [7]; 70% in data set [8]; 0% in [9]; 30% in data set [10]; 0% in [11]; 40% in data set [12].
Regarding `COC(=O)c1nc(-c2ccc(Cl)c(OC)c2F)nc2c1OCCN2C` [Compound 106-74, 2-(4-Chloro-2-fluoro-3-methoxyphenyl)-4-methoxycarbonyl-8-methyl-7,8-dihydro-6H-pyrimido[5,4-b][1,4]oxazine], the pest or weed control at 1000 g/ha in [1], in [2], in data set [3], in [4], in data set [5] and in [6] was 0% in each case. Besides, the pest or weed control at 1000 g/ha in [7], in [8], in data set [9], in data set [10], in data set [11] and in data set [12] was 0% in each case.
As for `COC(=O)c1nc(-c2ccc(Cl)c(OC)c2F)nc2c1Nc1ccccc1N2` [Compound 119-168, 2-(4-chloro-2-fluoro-3-methoxyphenyl)-4-methoxycarbonyl-5,10-dihydro-benzo[g]pteridine], the pest or weed control at 1000 g/ha in data set [1], in data set [2], in data set [3], in [4], in [5] and in data set [6] was 0% each time. For the same molecule, the pest or weed control at 1000 g/ha in data set [7] worked out at 0%; in data set [8] it was 10%; in data set [9] it was 0%; in data set [10], 40%; in [11], 0%; in [12] it was 30%.
On to `COC(=O)c1nc(-c2ccc(Cl)c(OC)c2F)nc2nc3ccccc3nc12` [Compound 125-76, 2-(4-chloro-2-fluoro-3-methoxyphenyl)-4-methoxycarbonyl-benzo[g]pteridine], for which the pest or weed control at 1000 g/ha in [1] came out at 10%; in [2], 80%; in data set [3], 20%; in data set [4] it was 60%; in [5], 20%; in data set [6] it was 70%. In addition, the pest or weed control at 1000 g/ha in data set [7] worked out at 10%; in data set [8], 100%; in [9] it was 70%; in [10] it was 80%; in data set [11], 80%; in [12], 90%.
